Test results taken from the supplement of paper PMC11061612.

Key:
Assay in all cases: Bliss excess, mean over the matrix (fraction); higher = more synergy
[1] = system: RCM-1 (Colorectal Carcinoma)
Outline: (§1)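 Cell lines in DMEM/F12 or RPMI with 10% FBS were plated in 1536-well plates, held 24 hours at 37°C, 5% CO2, then given two-drug dose matrices for 72 hours (DMSO typically 0.2%). Viability was read by CellTiter-Glo 2.0 luminescence and scaled as inhibition from 0 (vehicle wells) to 1 (blank wells). Combination Emax is the second-highest inhibition in the matrix; Bliss excess is observed combination effect minus expected EA + EB − EA·EB, EA and EB being single-agent effects.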

[2] = system: OVMIU (Ovarian Carcinoma)
Outline: as §1

[3] = system: SK-PN-DW (Other Solid Carcinomas)
Outline: as §1

[4] = system: PC-3_[JPC-3] (Lung Adenocarcinoma)
Outline: as §1

WM278 (Melanoma) = system: WM278 (Melanoma)
Outline: as §1

[5] = system: LXF-289 (Lung Adenocarcinoma)
Outline: as §1

IST-MES1 (Mesothelioma) = system: IST-MES1 (Mesothelioma)
Outline: as §1

[6] = system: HCT-15 (Colorectal Carcinoma)
Outline: as §1

[7] = system: 23132-87 (Gastric Carcinoma)
Outline: as §1

[8] = system: RERF-GC-1B (Gastric Carcinoma)
Outline: as §1

[9] = system: HSC-39 (Gastric Carcinoma)
Outline: as §1

[10] = system: SU-DHL-10 (B-Cell Non-Hodgkin's Lymphoma)
Outline: as §1

[11] = system: NCI-H23 (Lung Adenocarcinoma)
Outline: as §1

[12] = system: NCI-H2342 (Lung Adenocarcinoma)
Outline: as §1

SF268 (Low Grade Glioma) = system: SF268 (Low Grade Glioma)
Outline: as §1

[13] = system: L-1236 (Hodgkin's Lymphoma)
Outline: as §1

SF539 (Glioblastoma) = system: SF539 (Glioblastoma)
Outline: as §1

GB-1 (Glioblastoma) = system: GB-1 (Glioblastoma)
Outline: as §1

WM793B (Melanoma) = system: WM793B (Melanoma)
Outline: as §1

A2058 (Melanoma) = system: A2058 (Melanoma)
Outline: as §1

| SMILES | Bliss excess [1] | Bliss excess [2] | Bliss excess [3] | Bliss excess [4] | Bliss excess (WM278 (Melanoma)) | Bliss excess [5] | Bliss excess (IST-MES1 (Mesothelioma)) | Bliss excess [6] | Bliss excess [7] | Bliss excess [8] | Bliss excess [9] | Bliss excess [10] | Bliss excess [11] | Bliss excess [12] | Bliss excess (SF268 (Low Grade Glioma)) | Bliss excess [13] | Bliss excess (SF539 (Glioblastoma)) | Bliss excess (GB-1 (Glioblastoma)) | Bliss excess (WM793B (Melanoma)) | Bliss excess (A2058 (Melanoma)) |
| --- | --- | --- | --- | --- | --- | --- | --- | --- | --- | --- | --- | --- | --- | --- | --- | --- | --- | --- | --- | --- |
| NC1(C(=O)N[C@@H](CCO)c2ccc(Cl)cc2)CCN(c2ncnc3[nH]ccc23)CC1 [Capivasertib] + C[C@@H]1COCCN1C2=NC(=NC(=C2)C3(CC3)[S@](=N)(=O)C)C4=C5C=CNC5=NC=C4 [AZD6738] (first compound max 10 µM, 7x7, partner max 10 µM) | -0.0863 | -0.0471 | -0.0412 | -0.0356 | -0.0637 | -0.0889 | 0.0194 | -0.0104 | 0.0024 | -0.0076 | -0.0181 | -0.0359 | -0.0434 | -0.0709 | -0.0617 | -0.0645 | -0.0125 | -0.054 | -0.0919 | -0.0262 |
| COc1nnc2ccc(N3CCC(c4ccc(OCCN5CCN(C)C(=O)[C@H]5C)cc4)CC3)nn12 [AZD5153] + Cn1cnc2c(F)c(Nc3ccc(Br)cc3Cl)c(C(=O)NOCCO)cc21 [Selumetinib] (first compound max 1 µM, 7x7, partner max 10 µM) | -0.008 | -0.0452 | -0.0326 | 0.0189 | -0.0471 | -0.0468 | 0.0054 | 0.0243 | -0.036 | 0.0579 | -0.0013 | 0.0107 | -0.0027 | 0.0267 | -0.0504 | -0.0252 | -0.0255 | -0.035 | -0.074 | 0.0358 |
| Cc1c2c(nn1C)CSCc1cc(n(C)n1)CSc1cc(c3ccccc3c1)OCCCc1c(C(=O)O)n(C)c3c-2c(Cl)ccc13 [AZD5991] + C=CCn1c(=O)c2cnc(Nc3ccc(N4CCN(C)CC4)cc3)nc2n1-c1cccc(C(C)(C)O)n1 [AZD1775] (first compound max 1 µM, partner max 1 µM) | -0.0271 | 0.0145 | -0.0212 | 0.005 | 0.0438 | -0.029 | 0.0383 | -0.0306 | 0.0274 | 0.0041 | 0.0058 | 0.0259 | -0.0174 | -0.0144 | 0.0045 | -0.0319 | -0.0239 | 0.0148 | 0.0054 | 0.0959 |
| COc1cccc2c1C(=O)c1c(O)c3c(c(O)c1C2=O)C[C@@](O)(C(=O)CO)C[C@@H]3O[C@H]1C[C@H](N)[C@H](O)[C@H](C)O1 [Doxorubicin] + Cc1cc2ncnn2cc1Nc1ncc2c(n1)n(C1CCOCC1)c(=O)n2C [AZD7648] (first compound max 1 µM, 7x7, partner max 10 µM) | 0.0199 | -0.0193 | 0.105 | -0.027 | 0.0204 | 0.0233 | 0.0455 | 0.0644 | 0.049 | -0.0142 | 0.0909 | 0.0982 | 0.0413 | 0.0128 | 0.0462 | 0.0332 | 0.0403 | 0.0165 | 0.0438 | 0.0185 |
| C=CCn1c(=O)c2cnc(Nc3ccc(N4CCN(C)CC4)cc3)nc2n1-c1cccc(C(C)(C)O)n1 [AZD1775] + C1CN(CCC1(C(=O)N[C@@H](CCO)C2=CC=C(C=C2)Cl)N)C3=NC=NC4=C3C=CN4 [Capivasertib] (first compound max 3 µM, partner max 3 µM) | 0.0141 | -0.0032 | 0.0265 | -0.0534 | -0.0468 | -0.0046 | -0.0056 | 0.0159 | -0.0207 | -0.0632 | 0.0067 | 0.0484 | -0.0135 | -0.0136 | -0.009 | -0.097 | -0.0878 | -0.0211 | -0.0157 | 0.0217 |
| Cc1cc2ncnn2cc1Nc1ncc2c(n1)n(C1CCOCC1)c(=O)n2C [AZD7648] + CCN(CCO)CCCOc1ccc2c(Nc3cc(CC(=O)Nc4cccc(F)c4)[nH]n3)ncnc2c1 [AZD2811] (first compound max 10 µM, 7x7, partner max 1 µM) | -0.032 | -0.0159 | 0.105 | -0.0044 | -0.0081 | 0.0397 | 0.0188 | -0.003 | -0.0151 | 0.0209 | -0.0371 | -0.0765 | 0.016 | -0.0084 | 0.0023 | -0.0089 | 0.0118 | -0.0124 | -0.0038 | 0.01 |
| COc1cccc(OCCCN)c1-c1cc(Nc2cnc(C#N)cn2)n[nH]1 [Prexasertib] + O=C(c1cc(Cc2n[nH]c(=O)c3ccccc23)ccc1F)N1CCN(C(=O)C2CC2)CC1 [Olaparib] (first compound max 1 µM, 7x7, partner max 10 µM) | -0.196 | -0.0938 | -0.0689 | -0.0525 | -0.0732 | -0.0569 | -0.0105 | -0.0077 | -0.0503 | -0.0275 | 0.0127 | 0.0083 | -0.0675 | -0.0509 | 0.0208 | -0.0391 | 0.0007 | -0.0002 | -0.0688 | 0.0158 |
| CC1(C)CCC(CN2CCN(c3ccc(C(=O)NS(=O)(=O)c4ccc(NCC5CCOCC5)c([N+](=O)[O-])c4)c(Oc4cnc5[nH]ccc5c4)c3)CC2)=C(c2ccc(Cl)cc2)C1 [Venetoclax] + Cc1cc2ncnn2cc1Nc1ncc2c(n1)n(C1CCOCC1)c(=O)n2C [AZD7648] (first compound max 1 µM, 7x7, partner max 10 µM) | -0.0533 | -0.109 | -0.054 | -0.0445 | -0.0476 | -0.0935 | -0.0284 | -0.0043 | -0.0008 | -0.0276 | -0.0289 | -0.0139 | -0.0172 | -0.0473 | -0.0146 | -0.0274 | 0.0069 | -0.0591 | 0.0156 | 0.007 |
